By Ki is commonly meant the equilibrium dissociation constant of an inhibitor or competing ligand from its target. High values mean lower affinity, low ones higher affinity.

The values that follow come from BindingDB's records for doi:10.1016/j.bmcl.2006.08.044 (Glaxosmithkline, 2006).

The target of the experiment is Integrin alpha-4/beta-1 [T112H] (Homo sapiens, UniProt P05556+P13612, T112H). Briefly: Jurkat J6 Scintillation Proximity Assay. As for the experimental part: J6 cells (1 million cells/well) were allowed to coat wheat germ agglutinin coated SPA beads (Amersham, 1 mg/well) in assay buffer. Tritiated 3H Standard Compound A and test compounds were dissolved in an appropriate solvent and diluted in assay buffer. Data are presented as mean pKi.
Turning to `Cc1ccccc1NC(=O)Nc1ccc(-c2cccn(Cc3ccc([C@H](C)CC(=O)O)cc3)c2=O)c(Cl)c1` [(3R)-3-(4-{[3-(2-chloro-4-{[(2-methylphenyl)carbamoyl]amino}phenyl)-2-oxo-1,2-dihydropyridin-1-yl]methyl}phenyl)butanoic acid], the affinity corresponds to a Ki of 0.79 nM.
In the case of `Cc1ccccc1NC(=O)Nc1ccc(-c2cccn(Cc3ccc([C@H](C)CC(=O)O)cc3)c2=O)c(C)c1` [(3R)-3-(4-{[3-(2-methyl-4-{[(2-methylphenyl)carbamoyl]amino}phenyl)-2-oxo-1,2-dihydropyridin-1-yl]methyl}phenyl)butanoic acid], the Ki was 2.51 nM.
Take `Cc1ccccc1NC(=O)Nc1ccc(-c2cccn(Cc3ccc([C@H](C)CC(=O)O)cc3)c2=O)cc1Cl` [(3R)-3-(4-{[3-(3-chloro-4-{[(2-methylphenyl)carbamoyl]amino}phenyl)-2-oxo-1,2-dihydropyridin-1-yl]methyl}phenyl)butanoic acid]: the Ki was determined as 1 nM.
The same measure for `CCOc1cc(-c2cccn(Cc3ccc([C@H](C)CC(=O)O)cc3)c2=O)ccc1NC(=O)Nc1ccccc1C` [(3R)-3-(4-{[3-(3-ethoxy-4-{[(2-methylphenyl)carbamoyl]amino}phenyl)-2-oxo-1,2-dihydropyridin-1-yl]methyl}phenyl)butanoic acid]: 2 nM; for `CCc1cc(-c2cccn(Cc3ccc([C@H](C)CC(=O)O)cc3)c2=O)ccc1NC(=O)Nc1ccccc1C` [(3R)-3-(4-{[3-(3-ethyl-4-{[(2-methylphenyl)carbamoyl]amino}phenyl)-2-oxo-1,2-dihydropyridin-1-yl]methyl}phenyl)butanoic acid]: 6.31 nM; for `Cc1ccccc1NC(=O)Nc1ccc(-c2cccn(Cc3ccc([C@H](C)CC(=O)O)cc3)c2=O)cc1C` [(3R)-3-(4-{[3-(3-methyl-4-{[(2-methylphenyl)carbamoyl]amino}phenyl)-2-oxo-1,2-dihydropyridin-1-yl]methyl}phenyl)butanoic acid]: 1 nM.
The same measure for `Cc1ccccc1NC(=O)Nc1ccc(-c2cccn(Cc3ccc([C@H](C)CC(=O)O)cc3)c2=O)cc1OC(F)(F)F` [(3R)-3-(4-{[3-(4-{[(2-methylphenyl)carbamoyl]amino}-3-(trifluoromethoxy)phenyl)-2-oxo-1,2-dihydropyridin-1-yl]methyl}phenyl)butanoic acid]: 3.98 nM; for `Cc1ccccc1NC(=O)Nc1ccc(-c2cccn(Cc3ccc([C@@H](C)CC(=O)O)cc3)c2=O)c(Cl)c1` [(3S)-3-(4-{[3-(2-chloro-4-{[(2-methylphenyl)carbamoyl]amino}phenyl)-2-oxo-1,2-dihydropyridin-1-yl]methyl}phenyl)butanoic acid]: 25.1 nM.
The same measure for `Cc1ccccc1NC(=O)Nc1ccc(-c2cccn(Cc3ccc([C@@H](C)CC(=O)O)cc3)c2=O)c(C)c1` [(3S)-3-(4-{[3-(2-methyl-4-{[(2-methylphenyl)carbamoyl]amino}phenyl)-2-oxo-1,2-dihydropyridin-1-yl]methyl}phenyl)butanoic acid]: 19.9 nM; for `Cc1ccccc1NC(=O)Nc1ccc(-c2cccn(Cc3ccc([C@@H](C)CC(=O)O)cc3)c2=O)cc1Cl` [(3S)-3-(4-{[3-(3-chloro-4-{[(2-methylphenyl)carbamoyl]amino}phenyl)-2-oxo-1,2-dihydropyridin-1-yl]methyl}phenyl)butanoic acid]: 2 nM; for `CCOc1cc(-c2cccn(Cc3ccc([C@@H](C)CC(=O)O)cc3)c2=O)ccc1NC(=O)Nc1ccccc1C` [(3S)-3-(4-{[3-(3-ethoxy-4-{[(2-methylphenyl)carbamoyl]amino}phenyl)-2-oxo-1,2-dihydropyridin-1-yl]methyl}phenyl)butanoic acid]: 5.01 nM.
Take `CCc1cc(-c2cccn(Cc3ccc([C@@H](C)CC(=O)O)cc3)c2=O)ccc1NC(=O)Nc1ccccc1C` [(3S)-3-(4-{[3-(3-ethyl-4-{[(2-methylphenyl)carbamoyl]amino}phenyl)-2-oxo-1,2-dihydropyridin-1-yl]methyl}phenyl)butanoic acid]: the Ki came to 50.1 nM.
The same measure for `Cc1ccccc1NC(=O)Nc1ccc(-c2cccn(Cc3ccc([C@@H](C)CC(=O)O)cc3)c2=O)cc1C` [(3S)-3-(4-{[3-(3-methyl-4-{[(2-methylphenyl)carbamoyl]amino}phenyl)-2-oxo-1,2-dihydropyridin-1-yl]methyl}phenyl)butanoic acid]: 2.51 nM; for `Cc1ccccc1NC(=O)Nc1ccc(-c2cccn(Cc3ccc([C@@H](C)CC(=O)O)cc3)c2=O)cc1OC(F)(F)F` [(3S)-3-(4-{[3-(4-{[(2-methylphenyl)carbamoyl]amino}-3-(trifluoromethoxy)phenyl)-2-oxo-1,2-dihydropyridin-1-yl]methyl}phenyl)butanoic acid]: 19.9 nM.
